Each structure is given as a SMILES string.

By IC50 is commonly meant the point on the concentration scale where inhibition reaches its midpoint.

The test deals with DDR1 (Homo sapiens (Human), UniProt Q08345). Briefly: Measurement of DDR1 enzyme inhibitory activity (phosphorylation of biotinylated peptide, time-resolved fluorescence). Type of test: biochemical. The following applies: human DDR1 enzyme, biotinylated peptide phosphorylation; read-out: DDR1 enzyme inhibition assay IC50. As to the method: 1. Measurement of DDR1 Enzyme Inhibitory Activity
DDR1, sequence (Q08345 19-913): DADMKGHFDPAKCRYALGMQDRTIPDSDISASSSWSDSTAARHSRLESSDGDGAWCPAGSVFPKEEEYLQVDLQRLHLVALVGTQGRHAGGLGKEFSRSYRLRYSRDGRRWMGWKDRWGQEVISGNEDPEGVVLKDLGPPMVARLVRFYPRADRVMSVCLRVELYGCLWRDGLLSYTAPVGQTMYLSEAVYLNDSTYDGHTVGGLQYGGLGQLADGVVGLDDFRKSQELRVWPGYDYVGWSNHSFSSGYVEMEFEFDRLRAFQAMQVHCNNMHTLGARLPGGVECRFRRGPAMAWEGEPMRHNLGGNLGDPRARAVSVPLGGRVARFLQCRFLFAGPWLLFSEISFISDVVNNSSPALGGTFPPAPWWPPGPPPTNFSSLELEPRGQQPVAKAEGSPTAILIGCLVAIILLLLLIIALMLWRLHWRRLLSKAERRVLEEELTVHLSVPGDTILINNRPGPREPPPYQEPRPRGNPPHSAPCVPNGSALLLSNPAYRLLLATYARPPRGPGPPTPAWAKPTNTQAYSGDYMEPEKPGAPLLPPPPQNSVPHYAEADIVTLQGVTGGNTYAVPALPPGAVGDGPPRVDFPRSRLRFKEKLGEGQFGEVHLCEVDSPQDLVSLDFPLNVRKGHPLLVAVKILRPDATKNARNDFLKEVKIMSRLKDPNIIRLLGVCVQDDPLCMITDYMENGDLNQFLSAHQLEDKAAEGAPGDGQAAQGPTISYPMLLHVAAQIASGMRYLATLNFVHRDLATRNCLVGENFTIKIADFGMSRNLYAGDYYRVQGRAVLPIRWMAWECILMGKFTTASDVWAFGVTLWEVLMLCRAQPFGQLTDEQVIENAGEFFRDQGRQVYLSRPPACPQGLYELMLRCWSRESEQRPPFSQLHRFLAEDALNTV
The DDR1 enzyme inhibitory activity was determined with human DDR1 enzyme prepared using the baculovirus expression system, based on the inhibitory activity of phosphorylation of a biotinylated peptide ([…]) by the enzyme. The phosphorylated biotinylated peptide was detected using time-resolved fluorescence, with an anti-phosphorylated tyrosine antibody conjugated with europium cryptate and streptavidin conjugated with XL665 which is a derivative of allophycocyanin.
Turning to `CCSc1ccc(Cl)cc1Nn1cnc2c(Br)cc(C)cc2c1=O` [Compound A-1, 8-Bromo-3-(5-chloro-2-ethylsulfanylanilino)-6-methylquinazolin-4-one], the IC50 turned out to be 0.17 µM.

Regarding `CCS(=O)(=O)c1ccc(Cl)cc1Nn1cnc2c(Br)cc(C)cc2c1=O` [Compound A-2, 8-Bromo-3-(5-chloro-2-ethylsulfonylanilino)-6-methylquinazolin-4-one], the IC50 turned out to be 0.04 µM.

As for `CCSc1ccc(Cl)cc1Nn1cnc2c(-c3ccc(F)cc3)cc(C)cc2c1=O` [Compound A-3, 3-(5-Chloro-2-ethylsulfanylanilino)-8-(4-fluorophenyl)-6-methylquinazolin-4-one], the IC50 worked out at 0.11 µM.

Turning to `CCS(=O)(=O)c1ccc(Cl)cc1Nn1cnc2c(-c3ccc(F)cc3)cc(C)cc2c1=O` [Compound A-4, 3-(5-Chloro-2-ethylsulfonylanilino)-8-(4-fluorophenyl)-6-methylquinazolin-4-one], the concentration for half-maximal inhibition (IC50) was found to be 1.35 µM.

With `CCSc1ccc(Cl)cc1Nn1cnc2cc(Br)c(C)cc2c1=O` [Compound A-5, 7-Bromo-3-(5-chloro-2-ethylsulfanylanilino)-6-methylquinazolin-4-one], the IC50 was 0.88 µM.

For the compound `CCS(=O)(=O)c1ccc(Cl)cc1Nn1cnc2cc(Br)c(C(F)F)cc2c1=O` [Compound A-6, 7-Bromo-3-(5-chloro-2-ethylsulfonylanilino)-6-(difluoromethyl)quinazolin-4-one], the IC50 was 0.07 µM.

For the compound `CCSc1ccc(Cl)cc1Nn1cnc2cc(C)c(Br)cc2c1=O` [Compound A-7, 6-Bromo-3-(5-chloro-2-ethylsulfanylanilino)-7-methylquinazolin-4-one], the IC50 is 0.8 µM.

For the compound `CCS(=O)(=O)c1ccc(Cl)cc1Nn1cnc2cc(C)c(Br)cc2c1=O` [Compound A-8, 6-Bromo-3-(5-chloro-2-ethylsulfonylanilino)-7-methylquinazolin-4-one], the IC50 was 0.55 µM.

For the compound `CCSc1ccc(Cl)cc1Nn1cnc2ccc(C(F)(F)F)cc2c1=O` [Compound A-9, 3-(5-Chloro-2-ethylsulfanylanilino)-6-(trifluoromethyl)quinazolin-4-one], the IC50 came out at 0.18 µM.

On to `CCS(=O)(=O)c1ccc(Cl)cc1Nn1cnc2ccc(C(F)(F)F)cc2c1=O` [Compound A-10, 3-(5-Chloro-2-ethylsulfonylanilino)-6-(trifluoromethyl)quinazolin-4-one], for which the IC50 came out at 0.12 µM.

`CCSc1ccc(Cl)cc1Nn1cnc2c(Cl)cc(C(F)(F)F)cc2c1=O` [Compound A-11, 8-Chloro-3-(5-chloro-2-ethylsulfanylanilino)-6-(trifluoromethyl)quinazolin-4-one]: the IC50 was found to be 0.4 µM.

Regarding `CCS(=O)(=O)c1ccc(Cl)cc1Nn1cnc2c(I)cc(C(F)(F)F)cc2c1=O` [Compound A-13, 3-(5-Chloro-2-ethylsulfonylanilino)-8-iodo-6-(trifluromethyl)quinazolin-4-one], the IC50 came to 0.24 µM.

On to `CCSc1ccc(Cl)cc1Nn1cnc2cnc(Cl)cc2c1=O` [Compound A-14, 6-Chloro-3-(5-chloro-2-ethylsulfanylanilino)pyrido[3,4-d]pyrimidin-4-one], for which the IC50 worked out at 0.13 µM.

Take `CCS(=O)(=O)c1ccc(Cl)cc1Nn1cnc2cnc(Cl)cc2c1=O` [Compound A-15, 6-Chloro-3-(5-chloro-2-ethylsulfonylanilino)pyrido[3,4-d]pyrimidin-4-one]: the IC50 was found to be 1.23 µM.

As to `CCS(=O)(=O)c1ccc(Cl)cc1Nn1cnc2ncc(Br)cc2c1=O` [Compound A-17, 6-Bromo-3-(5-chloro-2-ethylsulfonylanilino)pyrido[2,3-d]pyrimidin-4-one], the IC50 turned out to be 0.27 µM.

Regarding `CCS(=O)(=O)c1ccc(Cl)cc1Nn1cnc2ncc(C#N)cc2c1=O` [Compound A-18, 3-(5-Chloro-2-ethylsulfonylanilino)-4-oxopyrido[2,3-d]pyrimidine-6-carbonitrile], the IC50 turned out to be 1.71 µM.

For the compound `CCSc1ccc(Cl)cc1Nn1cnc2cnc(F)cc2c1=O` [Compound A-19, 3-(5-Chloro-2-ethylsulfanylanilino)-6-fluoropyrido[3,4-d]pyrimidin-4-one], the IC50 is 0.51 µM.

`CCS(=O)(=O)c1ccc(Cl)cc1Nn1cnc2cnc(F)cc2c1=O` [Compound A-20, 3-(5-Chloro-2-ethylsulfonylanilino)-6-fluoropyrido[3,4-d]pyrimidin-4-one]: the IC50 stood at 7.64 µM.

For the compound `CCSc1ccc(Cl)cc1Nn1cnc2cnc(OC)cc2c1=O` [Compound A-21, 3-(5-Chloro-2-ethylsulfanylanilino)-6-methoxypyrido[3,4-d]pyrimidin-4-one], the concentration for half-maximal inhibition (IC50) worked out at 0.27 µM.

As for `CCS(=O)(=O)c1ccc(Cl)cc1Nn1cnc2cnc(OC)cc2c1=O` [Compound A-22, 3-(5-Chloro-2-ethylsulfonylanilino)-6-methoxypyrido[3,4-d]pyrimidin-4-one], the IC50 stood at 1.93 µM.

Take `CCSc1ccc(Cl)cc1Nn1cnc2ncc(C(F)(F)F)cc2c1=O` [Compound A-23, 3-(5-Chloro-2-ethylsulfanylanilino)-6-(trifluoromethyl)pyrido[2,3-d]pyrimidin-4-one]: the IC50 stood at 0.16 µM.

In the case of `CCS(=O)(=O)c1ccc(Cl)cc1Nn1cnc2ncc(C(F)(F)F)cc2c1=O` [Compound A-24, 3-(5-Chloro-2-ethylsulfonylanilino)-6-(trifluoromethyl)pyrido[2,3-d]pyrimidin-4-one], the IC50 was determined as 0.19 µM.

For `CCSc1ccc(Cl)cc1Nn1cnc2ccc(F)cc2c1=O` [Compound A-28, 3-(5-Chloro-2-ethylsulfanylanilino)-6-fluoroquinazolin-4-one], the IC50 stood at 0.088 µM.

Consider `CCS(=O)(=O)c1ccc(Cl)cc1Nn1cnc2ccc(F)cc2c1=O` [Compound A-29, 3-(5-Chloro-2-ethylsulfonylanilino)-6-fluoroquinazolin-4-one], for which the IC50 turned out to be 0.34 µM.

With `CCSc1ccc(Cl)cc1Nn1cnc2cc(F)c(F)cc2c1=O` [Compound A-30, 3-(5-Chloro-2-ethylsulfanylanilino)-6,7-difluoroquinazolin-4-one], the half-inhibitory concentration (IC50) came to 0.1 µM.

As to `CCS(=O)(=O)c1ccc(Cl)cc1Nn1cnc2cc(F)c(F)cc2c1=O` [Compound A-31, 3-(5-Chloro-2-ethylsulfonylanilino)-6,7-difluoroquinazolin-4-one], the IC50 came out at 0.38 µM.

Turning to `CCSc1ccc(Cl)cc1Nn1cnc2c(Br)cc(C(F)(F)F)cc2c1=O` [Compound A-32, 8-Bromo-3-(5-chloro-2-ethylsulfanylanilino)-6-(trifluoromethyl)quinazolin-4-one], the IC50 is 0.29 µM.

Consider `CCSc1ccc(Cl)cc1Nn1cnc2ccc(OC)cc2c1=O` [Compound A-34, 3-(5-Chloro-2-ethylsulfanylanilino)-6-methoxyquinazolin-4-one], for which the IC50 was 0.068 µM.

For `CCS(=O)(=O)c1ccc(Cl)cc1Nn1cnc2ccc(OC)cc2c1=O` [Compound A-35, 3-(5-Chloro-2-ethylsulfonylanilino)-6-methoxyquinazolin-4-one], the IC50 turned out to be 0.095 µM.

As for `CCOc1ccc2ncn(Nc3cc(Cl)ccc3SCC)c(=O)c2c1` [Compound A-36, 3-(5-Chloro-2-ethylsulfanylanilino)-6-ethoxyquinazolin-4-one], the IC50 amounted to 0.25 µM.

In the case of `CCOc1ccc2ncn(Nc3cc(Cl)ccc3S(=O)(=O)CC)c(=O)c2c1` [Compound A-37, 3-(5-Chloro-2-ethylsulfonylanilino)-6-ethoxyquinazolin-4-one], the IC50 amounted to 0.43 µM.

For the compound `CCSc1ccc(Cl)cc1Nn1cnc2cc(OC)c(OC)cc2c1=O` [Compound A-38, 3-(5-Chloro-2-ethylsulfanylanilino)-6,7-dimethoxyquinazolin-4-one], the IC50 was found to be 0.48 µM.

In the case of `CCS(=O)(=O)c1ccc(Cl)cc1Nn1cnc2cc(OC)c(OC)cc2c1=O` [Compound A-39, 3-(5-Chloro-2-ethylsulfonylanilino)-6-dimethoxyquinazolin-4-one], the IC50 came to 1.75 µM.

On to `CCSc1ccc(Cl)cc1Nn1cnc2cc3c(cc2c1=O)OCO3` [Compound A-40, 7-(5-Chloro-2-ethylsulfanylanilino)-[1,3]dioxolo[4,5-g]quinazolin-8-one], for which the IC50 stood at 0.35 µM.

Turning to `CCS(=O)(=O)c1ccc(Cl)cc1Nn1cnc2cc3c(cc2c1=O)OCO3` [Compound A-41, 7-(5-Chloro-2-ethylsulfonylanilino)-[1,3]dioxolo[4,5-g]quinazolin-8-one], the IC50 is 1.95 µM.

As to `CCSc1ccc(Cl)cc1Nn1cnc2cc3c(cc2c1=O)OCCO3` [Compound A-42, 3-(5-Chloro-2-ethylsulfanylanilino)-7,8-dihydro-[1,4]dioxino[2,3-g]quinazolin-4-one], the IC50 was determined as 3.1 µM.

With `CCS(=O)(=O)c1ccc(Cl)cc1Nn1cnc2cc3c(cc2c1=O)OCCO3` [Compound A-43, 3-(5-Chloro-2-ethylsulfonylanilino)-7,8-dihydro-[1,4]dioxino[2,3-g]quinazolin-4-one], the IC50 was found to be 0.6 µM.

Turning to `CCSc1ccc(Cl)cc1Nn1cnc2ccc(OC(F)(F)F)cc2c1=O` [Compound A-44, 3-(5-Chloro-2-ethylsulfanylanilino)-6-(trifluoromethoxy)quinazolin-4-one], the IC50 was 0.29 µM.

`CCSc1ccc(Cl)cc1Nn1cnc2c(Br)cc(OC(F)(F)F)cc2c1=O` [Compound A-46, 8-Bromo-3-(5-chloro-2-ethylsulfanylanilino)-6-(trifluoromethoxy)quinazolin-4-one]: the half-inhibitory concentration (IC50) turned out to be 0.42 µM.

For `CCSc1ccc(Cl)cc1Nn1cnc2ccc(SC)cc2c1=O` [Compound A-48, 3-(5-Chloro-2-ethylsulfanylanilino)-6-methylsulfanylquinazolin-4-one], the IC50 turned out to be 0.2 µM.

`CCS(=O)(=O)c1ccc(Cl)cc1Nn1cnc2ccc(S(C)(=O)=O)cc2c1=O` [Compound A-49, 3-(5-Chloro-2-ethylsulfonylanilino)-6-methylsulfonylquinazolin-4-one]: the IC50 was found to be 2.13 µM.

Take `CCSc1ccc(Cl)cc1Nn1cnc2ccc(C)cc2c1=O` [Compound A-50, 3-(5-Chloro-2-ethylsulfanylanilino)-6-methylquinazolin-4-one]: the IC50 came to 0.057 µM.

The values are drawn from patent US10005739B2, “Quinazolinone and isoquinolinone derivative” (CHUGAI SEIYAKU KABUSHIKI KAISHA, priority 2013, dated 2018).
